Experimental findings from ChEMBL document CHEMBL1201862, “PubChem BioAssay data set” (2004) are described below.

Test systems include M14; A549; Malme-3M; SF-539; TK-10; SK-MEL-5; HCT-15; NCI-H226; HCT-116; MOLT-4; NCI-H522; SK-MEL-28; LOX IMVI; OVCAR-3; RPMI-8226; 786-0; IGROV-1; BT-549; NCI/ADR-RES; Hs-578T.
What all share (assay): DTP human tumour cell line panel, 48 h

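Protocol summary: plate cells (96-well), add compound at 5 concentrations, incubate 48 h, interpolate endpoints linearly. At the GI50, growth is halved.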 The source made the active and inactive calls. Rule as the data show it: active = GI50 up to about 1.1 µM and inactive = higher.

Take `C/C(=N\NS(=O)(=O)c1ccc([N+](=O)[O-])cc1)c1ccc[n+]([O-])n1`: the GI50 in the assay on M14 is 1.8 µM (inactive); with A549, 2.19 µM (inactive); with Malme-3M, 3.09 µM (inactive); with SF-539 it was 2.08 µM (inactive); in the assay with TK-10, 11.6 µM (inactive); with SK-MEL-5, 2.35 µM (inactive). Moreover, the concentration for 50% growth inhibition (GI50) was 5.16 µM with HCT-15; 1.77 µM (inactive) in the assay with NCI-H226; 1.72 µM (inactive) in the assay with HCT-116; 2.92 µM (inactive) in the assay on MOLT-4; 1.95 µM (inactive) with NCI-H522; 3.21 µM (inactive) in the assay with SK-MEL-28. The 50% growth inhibitory concentration (GI50) with LOX IMVI is 0.912 µM (active); with OVCAR-3, 2.23 µM (inactive); with RPMI-8226, 2.16 µM (inactive); in the assay with 786-0, 2.36 µM (inactive); in the assay on IGROV-1, 3.79 µM (inactive).

As for `CCCCCCCCCCCCCC(=S)N/C=C/OC`, the GI50 was 35.3 µM (inactive) in the assay on M14; 37.4 µM (inactive) with A549; 26.6 µM (inactive) in the assay with Malme-3M; 66.5 µM (inactive) in the assay with SF-539; > 100 µM (inactive) in the assay on TK-10; 25 µM (inactive) in the assay on SK-MEL-5. In addition, the GI50 with HCT-15 is 22.9 µM; in the assay on NCI-H226, 43.8 µM (inactive); with HCT-116, 30.5 µM (inactive); with NCI-H522, 20.3 µM (inactive); with SK-MEL-28 it was 41.7 µM (inactive); in the assay on LOX IMVI, 20.5 µM (inactive). Besides, the GI50 was 23.6 µM (inactive) in the assay on OVCAR-3, 23.6 µM (inactive) with RPMI-8226, 30.8 µM (inactive) in the assay on 786-0 and 41.3 µM (inactive) in the assay with IGROV-1.

For `O=C1c2ccccc2-c2nc3ccc(O)cc3n21`, the GI50 in the assay with BT-549, in the assay with M14, in the assay with A549, with Malme-3M, in the assay with SF-539 and in the assay on TK-10 was > 100 µM (inactive) throughout. Also, the GI50 in the assay on SK-MEL-5 is > 100 µM (inactive); with HCT-15, more than 100 µM; with NCI-H226, > 100 µM (inactive); with HCT-116, > 100 µM (inactive); with MOLT-4, > 100 µM (inactive); in the assay on NCI-H522, > 100 µM (inactive). Also, the GI50 in the assay with SK-MEL-28, with NCI/ADR-RES, in the assay on OVCAR-3, in the assay on RPMI-8226, in the assay with 786-0 and with IGROV-1 was > 100 µM (inactive) in each case.

Regarding `Cc1cc(C)nc(Nc2nc3cc([N+](=O)[O-])ccc3[nH]2)n1`, the GI50 in the assay with M14, in the assay on A549, in the assay on Malme-3M, with SF-539, with TK-10 and in the assay with SK-MEL-5 was > 100 µM (inactive) throughout. In addition, the concentration for 50% growth inhibition (GI50) was more than 100 µM in the assay with HCT-15; > 100 µM (inactive) in the assay with NCI-H226; > 100 µM (inactive) in the assay on HCT-116; > 100 µM (inactive) in the assay on MOLT-4; > 100 µM (inactive) in the assay with NCI-H522; > 100 µM (inactive) in the assay with SK-MEL-28. Moreover, the GI50 in the assay on LOX IMVI, in the assay on OVCAR-3, in the assay with RPMI-8226, in the assay with 786-0 and in the assay with IGROV-1 was > 100 µM (inactive) in each case.

As for `NC(=O)N1N=C2c3ccccc3CC[C@@H]2C1c1ccccc1` (stereo partly specified), the GI50 in the assay on M14 is > 100 µM (inactive); in the assay on A549 it was > 100 µM (inactive); in the assay on Malme-3M, > 100 µM (inactive); in the assay on SF-539, > 100 µM (inactive); in the assay on TK-10, > 100 µM (inactive); in the assay with SK-MEL-5, 88.7 µM (inactive). In addition, the GI50 is more than 100 µM in the assay on HCT-15; > 100 µM (inactive) with NCI-H226; > 100 µM (inactive) with HCT-116; 69 µM (inactive) in the assay on MOLT-4; 61 µM (inactive) in the assay with NCI-H522; > 100 µM (inactive) in the assay with SK-MEL-28. Moreover, the GI50 was > 100 µM (inactive) in the assay with LOX IMVI; > 100 µM (inactive) in the assay with OVCAR-3; 63.2 µM (inactive) in the assay on RPMI-8226; > 100 µM (inactive) with 786-0; > 100 µM (inactive) in the assay on IGROV-1.

For `O=C1C(Cl)C(c2ccc(O)cc2)N1n1cnc2ccccc2c1=O` (stereo unspecified), the GI50 in the assay with M14 was 30.5 µM (inactive); with A549 it was > 100 µM (inactive); in the assay on Malme-3M, 37.2 µM (inactive); in the assay with SF-539, 31.9 µM (inactive); in the assay with TK-10, 40.6 µM (inactive); in the assay on SK-MEL-5 it was 52.8 µM (inactive). Moreover, the GI50 in the assay on HCT-15 is 27.4 µM; in the assay with NCI-H226, > 100 µM (inactive); with HCT-116, 17.1 µM (inactive); in the assay on MOLT-4, 25.6 µM (inactive); with NCI-H522 it was 16.6 µM (inactive); with SK-MEL-28, 26.7 µM (inactive). In addition, the GI50 was 21 µM (inactive) in the assay with LOX IMVI; 32 µM (inactive) with OVCAR-3; 19 µM (inactive) with RPMI-8226; 28.8 µM (inactive) in the assay with 786-0; > 57.5 µM (inactive) in the assay with IGROV-1.

On to `CN1CCC/C1=N\C#N`, for which the GI50 in the assay on Hs-578T, in the assay with M14, in the assay on A549, in the assay on Malme-3M, in the assay with SF-539 and with TK-10 was > 100 µM (inactive) throughout. Moreover, the GI50 in the assay with SK-MEL-5 is > 100 µM (inactive); with HCT-15 it was more than 100 µM; with NCI-H226, > 100 µM (inactive); in the assay on HCT-116, > 100 µM (inactive); in the assay with MOLT-4, > 100 µM (inactive); in the assay on NCI-H522, > 100 µM (inactive). Further, the GI50 in the assay on SK-MEL-28, in the assay on LOX IMVI, in the assay with NCI/ADR-RES, in the assay on OVCAR-3, in the assay on RPMI-8226 and in the assay on 786-0 was > 100 µM (inactive) throughout. Further, in the assay with IGROV-1, the GI50 was > 100 µM (inactive).

`C[C@@H](Br)[C@@H]1CC[C@H]2c3[nH]c4ccccc4c3CCN2C1`: the GI50 is 13.3 µM (inactive) in the assay with Hs-578T; 19.8 µM (inactive) in the assay with M14; 34.4 µM (inactive) with A549; 18.8 µM (inactive) in the assay on Malme-3M; 31.7 µM (inactive) in the assay on TK-10; 15.9 µM (inactive) with SK-MEL-5. Further, the concentration for 50% growth inhibition (GI50) with HCT-15 was 17.5 µM; with NCI-H226, 28.6 µM (inactive); in the assay on MOLT-4, 17.7 µM (inactive); with NCI-H522, 13.2 µM (inactive); in the assay on SK-MEL-28, 24.4 µM (inactive); in the assay on LOX IMVI, 16.5 µM (inactive). Further, the GI50 in the assay with NCI/ADR-RES was 20.2 µM (inactive); in the assay on OVCAR-3, 15.6 µM (inactive); with RPMI-8226, 13.6 µM (inactive); with 786-0 it was 18.6 µM (inactive); in the assay with IGROV-1, 12.1 µM (inactive).

As for `CCOC(=O)c1c(SC(=O)c2cc(OC)c(OC)c(OC)c2)n(-c2ccccc2)c(=S)n(-c2ccccc2)c1=O`, the GI50 in the assay with Hs-578T is > 100 µM (inactive); with M14, > 100 µM (inactive); in the assay on A549, > 100 µM (inactive); in the assay on Malme-3M, 51.8 µM (inactive); in the assay on SF-539 it was > 100 µM (inactive); in the assay on TK-10, > 100 µM (inactive). Besides, the GI50 was more than 100 µM in the assay with HCT-15; > 100 µM (inactive) in the assay on NCI-H226; > 100 µM (inactive) with HCT-116; > 100 µM (inactive) in the assay on MOLT-4; > 100 µM (inactive) with NCI-H522; > 100 µM (inactive) in the assay on SK-MEL-28. Besides, the GI50 in the assay on LOX IMVI, in the assay with NCI/ADR-RES, in the assay with OVCAR-3, with 786-0 and with IGROV-1 was > 100 µM (inactive) in each case.

On to `COc1ccc(C2Oc3ccc(O)cc3[C@@H]2C)cc1OC` (stereo partly specified), for which the GI50 in the assay on M14 is > 100 µM (inactive); in the assay with A549, > 100 µM (inactive); in the assay on Malme-3M it was > 100 µM (inactive); in the assay on SF-539, > 100 µM (inactive); in the assay with TK-10, > 100 µM (inactive); with SK-MEL-5, 48.5 µM (inactive). Moreover, the GI50 in the assay on HCT-15 was 52.6 µM; with NCI-H226, > 100 µM (inactive); in the assay on HCT-116 it was > 100 µM (inactive); in the assay with MOLT-4, 37.6 µM (inactive); in the assay on NCI-H522, 27.5 µM (inactive); in the assay on SK-MEL-28 it was > 100 µM (inactive). For the same molecule, the GI50 with LOX IMVI was > 100 µM (inactive); with OVCAR-3, > 100 µM (inactive); with RPMI-8226, 4.05 µM (inactive); in the assay with 786-0 it was > 100 µM (inactive); with IGROV-1 it was > 100 µM (inactive).

Take `CCOP(=O)(OCC)/C(=C\n1ccc(=O)[nH]c1=S)C(=O)OC`: the GI50 in the assay on Hs-578T is 66.2 µM (inactive); with M14, > 100 µM (inactive); in the assay on A549 it was > 100 µM (inactive); in the assay with Malme-3M it was > 100 µM (inactive); in the assay on SF-539, > 100 µM (inactive); in the assay with SK-MEL-5, > 100 µM (inactive). The concentration for 50% growth inhibition (GI50) in the assay with HCT-15 was more than 100 µM; in the assay on NCI-H226, > 100 µM (inactive); in the assay on HCT-116, > 100 µM (inactive); with MOLT-4 it was > 100 µM (inactive); with NCI-H522, > 100 µM (inactive); with SK-MEL-28 it was > 100 µM (inactive). For the same molecule, the GI50 with LOX IMVI, in the assay on NCI/ADR-RES, with RPMI-8226, in the assay on 786-0 and with IGROV-1 was > 100 µM (inactive) in each case.

On to `OCC(O)C(O)C(C=NNc1ncnc2ccc(Br)cc12)=NNc1ncnc2ccc(Br)cc12` (stereo unspecified), for which the GI50 was 9.62 µM (inactive) in the assay on Hs-578T; 1.62 µM (inactive) in the assay with M14; 2.88 µM (inactive) in the assay on A549; 0.378 µM (active) with Malme-3M; 1.94 µM (inactive) in the assay on SF-539; 8.45 µM (inactive) with TK-10. Further, the GI50 in the assay with SK-MEL-5 was 0.968 µM (active); in the assay with NCI-H226 it was 1.67 µM (inactive); in the assay on HCT-116, 0.358 µM (active); in the assay on MOLT-4, 0.258 µM (active); in the assay on NCI-H522 it was 0.383 µM (active); in the assay on SK-MEL-28, 1.45 µM (inactive). The 50% growth inhibitory concentration (GI50) is 0.745 µM (active) in the assay on LOX IMVI; 0.339 µM (active) in the assay on OVCAR-3; 1.19 µM (inactive) in the assay with RPMI-8226; 0.834 µM (active) in the assay with 786-0; 0.726 µM (active) with IGROV-1.
